Tests used:
[1] = molecular target: nucleotide binding site (NBS); conditions: read-out: previously reported Kd for IBA/NBS interactions; cited from earlier work
[2] = tested on: CD20 negative myeloma cell lines, U266, H929, and MM.1S; assay: CD20 antigen detection flow cytometry assay; assay type: cell-based; conditions: conjugate 200 nM, photocrosslinked at 1 J/cm^2; U266, H929, MM.1S
Experimental: IM9, U266, H929, and MM.1S cell lines were cultured in RPMI 1640 media containing 10% FBS, 2 mM L-glutamine, 100 U/mL penicillin, and 100 μg/mL streptomycin. […] IBA-FITC was photocrosslinked to Rituximab at the indicated UV energies. All cell lines were used at a density of 0.5×10^6 cells/mL in blocking buffer (1.5% BSA in PBS pH 7.4) and initially incubated for 30 min on ice. […] Samples were washed three times and analyzed on a Guava easyCyte 8HT flow cytometer.

Compound | Kd [1] [µM] | binding to CD20 negative cell lines [2]
O=C(O)CCCc1c[nH]c2ccccc12 [IBA, indole-3-butyric acid] | 1 to 8 | –
Rituximab-IBA-FITC conjugate | – | negligible binding

— patent US11116848B2, “Selective UV crosslinking of peptides and functional moieties to immunoglobulins” (University of Notre Dame du Lac, priority 2013, dated 2021)
